Data as given in patent US20260183407A1, “DYRK/CLK PROTACS AND USES THEREOF” (Arizona Board of Regents on Behalf of the University of …, priority 2022, published 2026).

Experiments:
DYRK1B [1] = target: T1, DYRK1B (Homo sapiens, UniProt Q9Y463); assay: HiBiT split luciferase assay of targeted degradation of DYRK1B in Flp-In T-REx 293 cells; format: cell-based; details: 300 nM compound, 24 h, HiBiT-tagged DYRK1B in Flp-In T-REx 293 cells, normalized to vehicle; read-out: Relative Degradation at 300 nM DYRK1B
T1 construct: purchased Eurofins; host or cells: E. coli BL21-derived (T7 phage display) or HEK-293
Text: (§1) The Flp-In T-REx 293 Cell Line and the pcDNA5/FRT/TO vector (Invitrogen) were used to generate stable cell clones for tetracyclin-inducible expression of DYRK1A and DYRK1B. These cells contain a single stably integrated Flp recognition target (FRT) site, which allows for site-specific integration of the expression cassette by the Flp (Flippase) recombinase. DYRK1 constructs were designed to contain a C-terminal HiBiT tag for quantitative detection of HiBiT-tagged proteins in cellular lysates with the help a split luciferase assay (Nano-Glo HiBiT Lytic Detection System, Promega). To monitor the targeted degradation of DYRK1A or DYRK1B, cells were seeded in 96-well plates (10,000 cells/per well) and treated with doxycyclineinal concentration 2 μg/ml) to induce DYRK1 expression. Compounds with presumed PROTAC activity were administered 24 h after seeding. After further incubation for 24 h, cells were grossly and microscopically inspected for overt toxicity. Cells were lysed in 100 μL ice-cold passive lysis buffer (PLB, Promega) by orbital shaking (30 min on ice) before lysates were centrifuged in PCR tube (20 min 20,000 g, RT). A 10 μl aliquot of the supernatant was subjected to the HiBiT lytic assay. Luminescence was quantified in an Orion Microplate luminometer (Berthold Detection System, Germany). All compounds were tested in duplicate or triplicate wells (technical replicates) and at least two independent experiments. Relative degradation was calculated by normalization to vehicle-treated control samples.

DYRK1B [2] = target: T1, DYRK1B; assay: KdELECT kinase binding assay (Eurofins), DYRK1B; details: 11-point 3-fold dilution series, qPCR readout; read-out: Binding Affinity (Kd) DYRK1B
Procedure: (§2) KDs were obtained from Eurofins who used the following procedure: Kinase tagged T7 phase strains were prepared in an E. coli host derived from the BL21 strain. E. coli were grown to log-phase and infected with T7 phage and incubated with shaking at 32° C. until lysis. The lysates were centrifuged and filtered to remove cell debris. The remaining kinases were produced in HEK-293 cells and subsequently tagged with DNA for qPCR detection. Streptavidin-coated magnetic beads were treated with biotinylated small molecule ligands for 30 minutes at room temperature to generate affinity resins for kinase assays. The liganded beads were blocked with excess biotin and washed with locking buffer (SeaBlock (Pierce), 1% BSA, 0.05% Tween 20, 1 mM DTT) to remove unbound ligand and to reduce non-specific binding. Binding reactions were assembled by combining kinases, liganded affinity beads, and test compounds in 1× binding buffer (20% SeaBlock, 0.17× PBS, 0.05% Tween 20, 6 mM DTT). Test compounds were prepared as 111X stocks in 100% DMSO. Kds were determined using a 11-poin 3-fold compound dilution series with three DMSO control points. All compounds for Kd measurements are distributed by acoustic transfer (non-contact dispensing) in 100% DMSO. The compounds were then diluted directly into the assays such that the final concentration of DMSO was 0.9%. All reactions performed in polypropylene 384-well plate. Each was a final volume of 0.02 mL. The assay plates were incubated at room temperature with shaking for 1 hour and the affinity beads were washed with wash buffer (1×PBS, 0.05% Tween 20). The beads were then resuspended in elution buffer (1X PBS, 0.05% Tween 20, 0.5 µM nonbiotinylated affinity ligand) and incubated at room temperature with shaking for 30 minutes. The kinase concentration in the eluates was measured by qPCR.

DYRK1A [3] = target: T2, DYRK1A (Homo sapiens, UniProt Q13627); assay: HiBiT split luciferase assay of targeted degradation of DYRK1A in Flp-In T-REx 293 cells; format: cell-based; details: 300 nM compound, 24 h, HiBiT-tagged DYRK1A in Flp-In T-REx 293 cells, normalized to vehicle; read-out: Relative Degradation at 300 nM DYRK1A
T2 construct: purchased Eurofins; host or cells: E. coli BL21-derived (T7 phage display) or HEK-293
Text: as §1

DYRK1A [4] = target: T2, DYRK1A; assay: KdELECT kinase binding assay (Eurofins), DYRK1A; details: 11-point 3-fold dilution series, qPCR readout; read-out: Binding Affinity (Kd) DYRK1A
Procedure: as §2

T1 sequence (Q9Y463 whole entry, species assumed): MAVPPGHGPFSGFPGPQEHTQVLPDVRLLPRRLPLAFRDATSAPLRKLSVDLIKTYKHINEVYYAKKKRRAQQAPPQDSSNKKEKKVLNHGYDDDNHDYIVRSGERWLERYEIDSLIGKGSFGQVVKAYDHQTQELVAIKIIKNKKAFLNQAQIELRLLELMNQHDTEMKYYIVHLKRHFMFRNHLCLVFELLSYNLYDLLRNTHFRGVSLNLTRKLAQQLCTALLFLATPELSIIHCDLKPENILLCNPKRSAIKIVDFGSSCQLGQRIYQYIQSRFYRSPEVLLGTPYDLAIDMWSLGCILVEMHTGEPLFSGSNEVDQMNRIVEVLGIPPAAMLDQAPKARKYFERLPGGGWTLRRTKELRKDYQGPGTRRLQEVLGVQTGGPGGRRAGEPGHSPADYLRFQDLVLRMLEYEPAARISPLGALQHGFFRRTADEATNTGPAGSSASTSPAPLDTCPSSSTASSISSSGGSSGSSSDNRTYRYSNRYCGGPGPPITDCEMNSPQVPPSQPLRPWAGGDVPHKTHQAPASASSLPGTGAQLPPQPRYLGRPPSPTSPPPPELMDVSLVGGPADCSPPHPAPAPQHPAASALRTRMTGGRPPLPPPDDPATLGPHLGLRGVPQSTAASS

| SMILES | inhibition at 0.3 µM (DYRK1B [1]) | Kd (DYRK1B [2]) | inhibition at 0.3 µM (DYRK1A [3]) | Kd (DYRK1A [4]) |
| --- | --- | --- | --- | --- |
| Cc1ncsc1-c1ccc(CNC(=O)[C@@H]2C[C@@H](O)CN2C(=O)[C@@H](NC(=O)CCOCCOCCOCCOCCN2CCN(c3ccc(-n4c(C)nc5ccc(-c6ccnc(N)c6)nc54)cc3F)CC2)C(C)(C)C)cc1 [Compound 3, (2S,4R)-1-((S)-1-(4-(4-(5-(2-aminopyridin-4-yl)-2-methyl-3H-imidazo[4,5-b]pyridin-3-yl)-2-fluorophenyl)piperazin-1-yl)-17-(tert-butyl)-15-oxo-3,6,9,12-tetraoxa-16-azaoctadecan-18-oyl)-4-hydroxy-N-(4-(4-methylthiazol-5-yl)benzyl)pyrrolidine-2-carboxamide] | < 30% | < 10 nM | < 30% | < 10 nM |
| Cc1ncsc1-c1ccc(CNC(=O)[C@@H]2C[C@@H](O)CN2C(=O)[C@@H](NC(=O)CCOCCOCCOCCOCCOCCN2CCN(c3ccc(-n4c(C)nc5ccc(-c6ccnc(N)c6)nc54)cc3F)CC2)C(C)(C)C)cc1 [Compound 4, (2S,4R)-1-((S)-1-(4-(4-(5-(2-aminopyridin-4-yl)-2-methyl-3H-imidazo[4,5-b]pyridin-3-yl)-2-fluorophenyl)piperazin-1-yl)-20-(tert-butyl)-18-oxo-3,6,9,12,15-pentaoxa-19-azahenicosan-21-oyl)-4-hydroxy-N-(4-(4-methylthiazol-5-yl)benzyl)pyrrolidine-2-carboxamide] | < 30% | < 10 nM | < 30% | < 10 nM |
| Cc1nc2ccc(-c3ccnc(N)c3)nc2n1-c1ccc(N2CCN(CCOCCOCCNc3cccc4c3C(=O)N(C3CCC(=O)NC3=O)C4=O)CC2)c(F)c1 (stereo not shown) [Compound 5, 4-((2-(2-(2-(4-(4-(5-(2-aminopyridin-4-yl)-2-methyl-3H-imidazo[4,5-b]pyridin-3-yl)-2-fluorophenyl)piperazin-1-yl)ethoxy)ethoxy)ethyl)amino)-2-(2,6-dioxopiperidin-3-yl)isoindoline-1,3-dione] | < 30% | < 10 nM | 30 to 60% | < 10 nM |
| Cc1nc2ccc(-c3ccnc(N)c3)nc2n1-c1ccc(N2CCN(CCOCCOCCOCCNc3cccc4c3C(=O)N(C3CCC(=O)NC3=O)C4=O)CC2)c(F)c1 (stereo not shown) [Compound 6, 4-((2-(2-(2-(2-(4-(4-(5-(2-aminopyridin-4-yl)-2-methyl-3H-imidazo[4,5-b]pyridin-3-yl)-2-fluorophenyl)piperazin-1-yl)ethoxy)ethoxy)ethoxy)ethyl)amino)-2-(2,6-dioxopiperidin-3-yl)isoindoline-1,3-dione] | < 30% | < 10 nM | 30 to 60% | < 10 nM |
| Cc1nc2ccc(-c3ccnc(N)c3)nc2n1-c1ccc(N2CCN(CCOCCOCCOCCOCCNc3cccc4c3C(=O)N(C3CCC(=O)NC3=O)C4=O)CC2)c(F)c1 (stereo not shown) [Compound 7, 4-((14-(4-(4-(5-(2-aminopyridin-4-yl)-2-methyl-3H-imidazo[4,5-b]pyridin-3-yl)-2-fluorophenyl)piperazin-1-yl)-3,6,9,12-tetraoxatetradecyl)amino)-2-(2,6-dioxopiperidin-3-yl)isoindoline-1,3-dione, N,N-Diisopropylethylamine] | 30 to 50% | < 10 nM | 30 to 60% | < 10 nM |
| Cc1nc2ccc(-c3ccnc(N)c3)nc2n1-c1ccc(N2CCN(CCOCCOCCC(=O)N3CCN(Cc4ccc(CNc5cccc6c5CN(C5CCC(=O)NC5=O)C6=O)cc4)CC3)CC2)c(F)c1 (stereo not shown) [Compound 10, 3-(4-((4-((4-(3-(2-(2-(4-(4-(5-(2-aminopyridin-4-yl)-2-methyl-3H-imidazo[4,5-b]pyridin-3-yl)-2-fluorophenyl)piperazin-1-yl)ethoxy)ethoxy)propanoyl)piperazin-1-yl)methyl)benzyl)amino)-1-oxoisoindolin-2-yl)piperidine-2,6-dione] | < 30% | 10 to 100 nM | 30 to 60% | < 10 nM |
| Cc1nc2ccc(-c3ccnc(N)c3)nc2n1-c1ccc(N2CCN(CC#Cc3ccc(N4CCC(C(=O)N5CCC(n6cc(CNc7cccc8c7C(=O)N(C7CCC(=O)NC7=O)C8=O)cn6)CC5)CC4)nc3)CC2)c(F)c1 (stereo not shown) [Compound 18, 4-(((1-(1-(1-(5-(3-(4-(4-(5-(2-aminopyridin-4-yl)-2-methyl-3H-imidazo[4,5-b]pyridin-3-yl)-2-fluorophenyl)piperazin-1-yl)prop-1-yn-1-yl)pyridin-2-yl)piperidine-4-carbonyl)piperidin-4-yl)-1H-pyrazol-4-yl)methyl)amino)-2-(2,6-dioxopiperidin-3-yl)isoindoline-1,3-dione] | > 50% | 10 to 100 nM | > 60% | < 10 nM |
| Cc1nc2ccc(-c3ccnc(N)c3)nc2n1-c1ccc(N2CCN(CCC#Cc3ccc(N4CCC(C(=O)N5CCC(n6cc(CNc7cccc8c7C(=O)N(C7CCC(=O)NC7=O)C8=O)cn6)CC5)CC4)nc3)CC2)c(F)c1 (stereo not shown) [Compound 19, 4-(((1-(1-(1-(5-(4-(4-(4-(5-(2-aminopyridin-4-yl)-2-methyl-3H-imidazo[4,5-b]pyridin-3-yl)-2-fluorophenyl)piperazin-1-yl)but-1-yn-1-yl)pyridin-2-yl)piperidine-4-carbonyl)piperidin-4-yl)-1H-pyrazol-4-yl)methyl)amino)-2-(2,6-dioxopiperidin-3-yl)isoindoline-1,3-dione] | > 50% | 10 to 100 nM | > 60% | 10 to 100 nM |
| Cc1nc2ccc(-c3ccnc(N)c3)nc2n1-c1ccc(N2C[C@@H]3C[C@H]2CN3CC#Cc2ccc(N3CCC(C(=O)N4CCC(n5cc(CNc6cccc7c6C(=O)N(C6CCC(=O)NC6=O)C7=O)cn5)CC4)CC3)nc2)c(F)c1 (stereo partly drawn) [Compound 20, 4-(((1-(1-(1-(5-(3-((1S,4S)-5-(4-(5-(2-aminopyridin-4-yl)-2-methyl-3H-imidazo[4,5-b]pyridin-3-yl)-2-fluorophenyl)-2,5-diazabicyclo[2.2.1]heptan-2-yl)prop-1-yn-1-yl)pyridin-2-yl)piperidine-4-carbonyl)piperidin-4-yl)-1H-pyrazol-4-yl)methyl)amino)-2-(2,6-dioxopiperidin-3-yl)isoindoline-1,3-dione] | < 30% | 10 to 100 nM | 30 to 60% | < 10 nM |
| Cc1nc2ccc(-c3ccnc(N)c3)nc2n1-c1ccc(N2C3CCC2CN(CC#Cc2ccc(N4CCC(C(=O)N5CCC(n6cc(CNc7cccc8c7C(=O)N(C7CCC(=O)NC7=O)C8=O)cn6)CC5)CC4)nc2)C3)c(F)c1 (stereo not shown) [Compound 21, 4-(((1-(1-(1-(5-(3-(8-(4-(5-(2-aminopyridin-4-yl)-2-methyl-3H-imidazo[4,5-b]pyridin-3-yl)-2-fluorophenyl)-3,8-diazabicyclo[3.2.1]octan-3-yl)prop-1-yn-1-yl)pyridin-2-yl)piperidine-4-carbonyl)piperidin-4-yl)-1H-pyrazol-4-yl)methyl)amino)-2-(2,6-dioxopiperidin-3-yl)isoindoline-1,3-dione] | < 30% | 100 to 1000 nM | 30 to 60% | 10 to 100 nM |
